# Assays:
# [1] = target: T1, human NPFFR1 (hNPFFR1) receptor (Homo sapiens, UniProt Q9GZQ6); assay: Human NPFFR1 evaluation using BRET biosensors (antagonist IC50); assay type: cell-based; conditions: hNPFFR1 transiently over-expressed in HEK-293 T cells; BRET signal; stimulation by EC80 RFRP-3
# T1 construct: expressed in transfected cells; host or cells: HEK-293 T cells, transient co-transfection with polyethylenimine
# Method: Compounds of the present invention were tested successively for their agonist and antagonist activities on human NPFFR1 (hNPFFR1) receptor transiently over-expressed in HEK-293 T cells. Compounds exert agonist activity if, by themselves in absence of neuropeptide RFRP-3 (also named NPVF) they activate hNPFFR1; and they exert antagonist activity if they decrease the action of RFRP-3 on the receptor.
# The assay used to measure compound activity is based on BRET (Bioluminescence Resonance Energy Transfer) biosensors and is designed to monitor the plasma membrane translocation of protein that interacts with specific Ga subunit. The specific effector (luciferase tagged: BRET donor) recruited at the membrane will be in close proximity to a plasma membrane anchor (GFP tagged: BRET acceptor) to induce a BRET signal. Biosensors are described in the patent application WO 2016/041093 A1 (Biosensors for monitoring biomolecule localization and trafficking in cells).
# HEK-293 T cells are maintained in Dulbecco's Modified Eagle's Medium supplemented with 10% Foetal Calf Serum, 1% Penicillin/Streptomycin at 37° C./5% CO2.
# Cells are co-transfected using polyethylenimine (25 kDa linear) with four DNA plasmids encoding: hNPFFR1, GαoB, a Gi family specific intracellular effector fused to luciferase (BRET donor), a plasma membrane effector fused to GFP (BRET acceptor). After transfection, cells are cultured for 48 h at 37° C./5% CO2.
# Receptor activity is detected by changes in BRET signal.
# On the day of the assay, cells are detached using trypsin 0.05%, resuspended in assay buffer (1.8 mM CaCl2, 1 mM MgCl2, 2.7 mM KCl, 137 mM NaCl, 0.4 mM NaH2PO4, 5.5 mM D-Glucose, 11.9 mM NaHCO3, 25 mM Hepes) and seeded in 384 well plate at a density of 20,000 cells per well. Then, plates are equilibrated 3.5 hours at 37° C. before adding compounds.
# Compounds and luciferase substrate are added to the cells using an automated device (Freedom Evo®, Tecan) and BRET readings are collected on EnVision (PerkinElmer) with specific filters (410 nm BW 80 nm, 515 nm BW 30 nm).
# Agonist and antagonist activities of compounds are consecutively evaluated on the same cell plate. Agonist activity is first measured after 10 minutes incubation with compound alone on the cells. Then, cells are stimulated by an EC80 RFRP-3 concentration and luminescence is recorded for additional 10 minutes. EC80 RFRP-3 concentration is the concentration giving 80% of the maximal RFRP-3 response. Agonist or antagonist activities are evaluated in comparison to basal signals evoked by assay buffer or EC80 RFRP-3 alone, respectively.
# For IC50 determination, a dose-response test is performed using 20 concentrations (ranging over 6 logs) of each compound. Dose-response curves are fitted using the sigmoidal dose-response (variable slope) analysis in GraphPad Prism software (GraphPad Software) and IC50 of antagonist activity is calculated. Dose-response experiments are performed in duplicate, in two independent experiments.
# T1 sequence (Q9GZQ6 whole entry): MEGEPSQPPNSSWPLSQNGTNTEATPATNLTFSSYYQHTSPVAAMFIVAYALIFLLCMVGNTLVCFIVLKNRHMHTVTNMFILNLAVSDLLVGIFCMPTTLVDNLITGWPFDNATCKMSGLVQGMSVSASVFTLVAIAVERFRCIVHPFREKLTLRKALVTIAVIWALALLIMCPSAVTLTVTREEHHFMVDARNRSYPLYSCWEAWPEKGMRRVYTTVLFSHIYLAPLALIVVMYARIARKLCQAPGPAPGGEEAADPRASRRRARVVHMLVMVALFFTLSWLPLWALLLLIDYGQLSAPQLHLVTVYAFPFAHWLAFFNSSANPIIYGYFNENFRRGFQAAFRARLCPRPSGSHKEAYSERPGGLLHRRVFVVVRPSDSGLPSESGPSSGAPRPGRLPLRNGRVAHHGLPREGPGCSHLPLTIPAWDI
SMILES,IC50 [1],melting point
"CCc1nc(N)ccc1-c1cccc2cc(C)cnc12.Cl [Example 95, 6-ethyl-5-(3-methylquinolin-8-yl)pyridin-2-amine]",< 0.1 µM,> 250 °C
"CCc1nc(N)ccc1-c1ccccc1-c1ccc(C(F)(F)F)nc1.Cl [Example 81, 6-ethyl-5-(2-(6-(trifluoromethyl)pyridin-3-yl)phenyl)pyridin-2-amine]",0.1 to 1 µM,> 250 °C
"Cn1cc(-c2ccc(N)nc2N)c2ccccc21 [Example 16, 3-(1-Methylindol-3-yl)pyridine-2,6-diamine]",> 1 µM,47 to 55 °C
"Cl.Nc1ccc(-c2ccccc2-c2cccnc2)c(N)n1 [Example 45, 3-[2-(3-pyridyl)phenyl]pyridine-2,6-diamine]",0.1 to 1 µM,100 to 135 °C
"CCc1nc(N)ccc1-c1cccc2ccc(C(=O)N3CCC(c4ccccc4)CC3)nc12.Cl [Example 172, (8-(6-amino-2-ethylpyridin-3-yl)quinolin-2-yl)(4-phenylpiperidin-1-yl)methanone]",0.1 to 1 µM,> 250 °C
"CCc1nc(N)ccc1-c1cccc2ccc(C(=O)N3CC4CCC(C3)O4)nc12.Cl [Example 171, (8-(6-amino-2-ethylpyridin-3-yl)quinolin-2-yl)(8-oxa-3-azabicyclo[3.2.1]octan-3-yl)methanone]",< 0.1 µM,150 to 160 °C
"CCc1nc(N)ccc1-c1ccccc1-c1ccc(N2CCOCC2)nc1.Cl [Example 84, 6-ethyl-5-(2-(6-morpholinopyridin-3-yl)phenyl)pyridin-2-amine]",< 0.1 µM,95 to 110 °C
"CCc1nc(N)ccc1-c1c(F)c(F)cc2cc(O)cnc12.Cl [Example 112, 8-(6-amino-2-ethylpyridin-3-yl)-6,7-difluoroquinolin-3-ol]",0.1 to 1 µM,204 to 210 °C
"Cl.Nc1ccc(-c2cccc3cccnc23)c(CC2CCC2)n1 [Example 68, 6-(cyclobutylmethyl)-5-(quinolin-8-yl)pyridin-2-amine]",< 0.1 µM,120 to 180 °C
"Cl.Nc1ccc(-c2cccc3c2OCCO3)c(N)n1 [Example 38, 3-(2,3-Dihydro-benzo[1,4]dioxin-5-yl)-pyridine-2,6-diamine]",0.1 to 1 µM,99 to 110 °C
"CCc1nc(N)ccc1-c1c(C(F)(F)F)ccc2cccnc12.Cl [Example 109, 6-ethyl-5-(7-(trifluoromethyl)quinolin-8-yl)pyridin-2-amine]",< 0.1 µM,150 to 180 °C
"CCc1nc(N)ccc1-c1c(F)ccc2c1OCCC2.Cl [Example 176, 6-ethyl-5-(7-fluorochroman-8-yl)pyridin-2-amine]",< 0.1 µM,85 to 95 °C
"CC(C)c1nc(N)ccc1-c1cccc2ccncc12.Cl [Example 12, 6-Isopropyl-5-(8-isoquinolyl)pyridin-2-amine]",0.1 to 1 µM,> 250 °C
"CCc1nc(N)ccc1-c1cccc2ccc(C(F)(F)F)nc12.Cl [Example 99, 6-ethyl-5-(2-(trifluoromethyl)quinolin-8-yl)pyridin-2-amine]",< 0.1 µM,90 to 130 °C
"CCc1nc(N)ccc1-c1cccc2ccc(C(=O)N3CCCOCC3)nc12.Cl [Example 167, (8-(6-amino-2-ethylpyridin-3-yl)quinolin-2-yl)(1,4-oxazepan-4-yl)methanone]",< 0.1 µM,120 to 131 °C
"CCc1nc(N)ccc1-c1cccc2ccc(C(=O)N(CC)C3CCCCC3)nc12.Cl [Example 168, 8-(6-amino-2-ethylpyridin-3-yl)-N-cyclohexyl-N-ethylquinoline-2-carboxamide]",< 0.1 µM,142 to 148 °C
"Nc1ccc(-c2c[nH]c3ccccc23)c(N)n1 [Example 18, 3-(1H-indol-3-yl)pyridine-2,6-diamine]",> 1 µM,152 to 155 °C
"CCc1nc(N)ccc1-c1cccc2ccc(C(=O)NC3CCOCC3)nc12.Cl [Example 173, 8-(6-amino-2-ethylpyridin-3-yl)-N-(tetrahydro-2H-pyran-4-yl)quinoline-2-carboxamide]",< 0.1 µM,112 to 125 °C
"CCc1nc(N)ccc1-c1cccc2ccc(N3CCCC3)nc12.Cl [Example 131, 6-ethyl-5-(2-(pyrrolidin-1-yl)quinolin-8-yl)pyridin-2-amine]",0.1 to 1 µM,> 250 °C
"CCc1nc(N)ccc1-c1cccc2ccc(-c3cnccc3C)nc12.Cl [Example 127, 6-ethyl-5-(2-(4-methylpyridin-3-yl)quinolin-8-yl)pyridin-2-amine]",< 0.1 µM,180 to 188 °C

# Next, values leading:
IC50 [1],melting point,SMILES
< 0.1 µM,140 to 172 °C,"CCc1nc(N)ccc1-c1c(F)ccc2ccc(N3CC4CCC(C3)O4)nc12.Cl [Example 136, 5-(2-(8-oxa-3-azabicyclo[3.2.1]octan-3-yl)-7-fluoroquinolin-8-yl)-6-ethylpyridin-2-amine]"
< 0.1 µM,210 to 230 °C,"Cl.Nc1ccc(-c2c(F)ccc3ccc(O)nc23)c(N)n1 [Example 62, 8-(2,6-diaminopyridin-3-yl)-7-fluoroquinolin-2-ol]"
0.1 to 1 µM,> 250 °C,"CCc1nc(N)ccc1-c1c(F)c(F)cc2ccc(O)nc12.Cl [Example 161, 8-(6-amino-2-ethylpyridin-3-yl)-6,7-difluoroquinolin-2(1H)-one]"
< 0.1 µM,165 to 170 °C,"Cl.Nc1ccc(-c2cccc3c2sc2ccccc23)c(N)n1 [Example 39, 3-Dibenzothiophen-4-ylpyridine-2,6-diamine]"
> 1 µM,> 250 °C,"Cl.Nc1ccc(-c2ccc(C(F)(F)F)c3cccnc23)c(N)n1 [Example 54, 3-(5-(trifluoromethyl)quinolin-8-yl)pyridine-2,6-diamine]"
0.1 to 1 µM,> 250 °C,"Cc1nc(N)ccc1-c1cccc2cccnc12.Cl [Example 3, 6-Methyl-5-quinolin-8-yl-pyridin-2-ylamine]"
< 0.1 µM,73 to 81 °C,"Cl.Nc1ccc(-c2ccc(F)c3cccnc23)c(N)n1 [Example 55, 3-(5-fluoroquinolin-8-yl)pyridine-2,6-diamine]"
< 0.1 µM,> 250 °C,"Cl.Nc1ccc(-c2c(F)cc(F)c3cc(F)cnc23)c(N)n1 [Example 61, 3-(3,5,7-trifluoroquinolin-8-yl)pyridine-2,6-diamine]"
0.1 to 1 µM,> 250 °C,"Nc1ccc(-c2cccc3cnccc23)c(N)n1 [Example 33, 3-(5-Isoquinolyl)pyridine-2,6-diamine]"
0.1 to 1 µM,85 to 145 °C,"Cl.Nc1ccc(-c2c(F)ccc3cccnc23)c(CCC(F)(F)F)n1 [Example 69, 5-(7-fluoroquinolin-8-yl)-6-(3,3,3-trifluoropropyl)pyridin-2-amine]"
0.1 to 1 µM,> 250 °C,"CCc1nc(N)ccc1-c1c(F)ccc2cc(-c3ccccc3)cnc12.Cl [Example 107, 6-ethyl-5-(7-fluoro-3-phenylquinolin-8-yl)pyridin-2-amine]"
> 1 µM,> 250 °C,"Cl.Nc1ccc(-c2cccc3cccnc23)c(F)n1 [Example 2, 6-Fluoro-5-quinolin-8-yl-pyridin-2-ylamine]"
< 0.1 µM,100 to 140 °C,"CC(C)CCc1nc(N)ccc1-c1c(F)ccc2cccnc12.Cl [Example 73, 5-(7-fluoroquinolin-8-yl)-6-isopentylpyridin-2-amine]"
< 0.1 µM,114 to 116 °C,"Cl.Nc1ccc(-c2cccc3cc(F)cnc23)c(N)n1 [Example 58, 3-(3-fluoroquinolin-8-yl)pyridine-2,6-diamine]"
< 0.1 µM,190 to 220 °C,"Cl.Nc1ccc(-c2c(F)ccc3cccnc23)c(N)n1 [Example 57, 3-(7-fluoroquinolin-8-yl)pyridine-2,6-diamine]"

# From US20220298135A1, “5-HETEROARYL-PYRIDIN-2-AMINE COMPOUNDS AS NEUROPEPTIDE FF RECEPTOR ANTAGONISTS” (Domain Therapeutics, priority 2019, published 2022)
